# Measurements taken from patent US11643388B2, “Inhibitors of alpha 2 beta 1 integrin and methods of use thereof” (The Regents of the University of California, priority 2020, dated 2023).
# pIC50: −log10 of the molar value.
# Target: α2β1 (Homo sapiens, UniProt P05556+P17301)
# Assay: α2β1 cell adhesion
# Format: cell-based
# Sequence of α2β1 (P17301 30-1181): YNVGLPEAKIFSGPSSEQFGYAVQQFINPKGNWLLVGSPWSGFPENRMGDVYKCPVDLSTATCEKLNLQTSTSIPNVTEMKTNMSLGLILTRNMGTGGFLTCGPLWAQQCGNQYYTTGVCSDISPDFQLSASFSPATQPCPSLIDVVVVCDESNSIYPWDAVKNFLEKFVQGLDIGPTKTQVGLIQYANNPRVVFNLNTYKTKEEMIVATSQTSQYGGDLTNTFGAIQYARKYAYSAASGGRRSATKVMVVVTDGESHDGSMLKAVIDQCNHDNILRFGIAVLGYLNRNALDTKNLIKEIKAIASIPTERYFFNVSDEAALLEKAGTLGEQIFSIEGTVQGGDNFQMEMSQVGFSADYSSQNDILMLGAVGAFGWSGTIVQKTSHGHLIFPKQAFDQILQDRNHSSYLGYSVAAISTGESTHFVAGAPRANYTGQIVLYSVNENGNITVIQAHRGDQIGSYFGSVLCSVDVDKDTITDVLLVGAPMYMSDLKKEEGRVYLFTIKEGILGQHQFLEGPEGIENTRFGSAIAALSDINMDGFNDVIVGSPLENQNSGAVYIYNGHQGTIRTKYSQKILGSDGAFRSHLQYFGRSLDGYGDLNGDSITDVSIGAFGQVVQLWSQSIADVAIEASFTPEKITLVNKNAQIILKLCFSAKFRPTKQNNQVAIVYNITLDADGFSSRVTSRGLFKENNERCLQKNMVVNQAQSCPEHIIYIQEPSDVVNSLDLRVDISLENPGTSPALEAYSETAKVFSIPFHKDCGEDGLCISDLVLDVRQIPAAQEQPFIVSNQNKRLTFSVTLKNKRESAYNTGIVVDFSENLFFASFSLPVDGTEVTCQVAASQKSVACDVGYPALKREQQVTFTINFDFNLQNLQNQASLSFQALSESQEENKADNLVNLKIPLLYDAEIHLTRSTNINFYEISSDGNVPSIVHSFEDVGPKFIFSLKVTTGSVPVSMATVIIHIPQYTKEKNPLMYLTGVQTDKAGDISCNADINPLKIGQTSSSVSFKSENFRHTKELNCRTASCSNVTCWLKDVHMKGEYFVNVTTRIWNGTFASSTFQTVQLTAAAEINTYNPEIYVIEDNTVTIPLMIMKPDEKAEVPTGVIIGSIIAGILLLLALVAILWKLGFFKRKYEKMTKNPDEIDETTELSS
# Sequence of α2β1 (P05556 21-798): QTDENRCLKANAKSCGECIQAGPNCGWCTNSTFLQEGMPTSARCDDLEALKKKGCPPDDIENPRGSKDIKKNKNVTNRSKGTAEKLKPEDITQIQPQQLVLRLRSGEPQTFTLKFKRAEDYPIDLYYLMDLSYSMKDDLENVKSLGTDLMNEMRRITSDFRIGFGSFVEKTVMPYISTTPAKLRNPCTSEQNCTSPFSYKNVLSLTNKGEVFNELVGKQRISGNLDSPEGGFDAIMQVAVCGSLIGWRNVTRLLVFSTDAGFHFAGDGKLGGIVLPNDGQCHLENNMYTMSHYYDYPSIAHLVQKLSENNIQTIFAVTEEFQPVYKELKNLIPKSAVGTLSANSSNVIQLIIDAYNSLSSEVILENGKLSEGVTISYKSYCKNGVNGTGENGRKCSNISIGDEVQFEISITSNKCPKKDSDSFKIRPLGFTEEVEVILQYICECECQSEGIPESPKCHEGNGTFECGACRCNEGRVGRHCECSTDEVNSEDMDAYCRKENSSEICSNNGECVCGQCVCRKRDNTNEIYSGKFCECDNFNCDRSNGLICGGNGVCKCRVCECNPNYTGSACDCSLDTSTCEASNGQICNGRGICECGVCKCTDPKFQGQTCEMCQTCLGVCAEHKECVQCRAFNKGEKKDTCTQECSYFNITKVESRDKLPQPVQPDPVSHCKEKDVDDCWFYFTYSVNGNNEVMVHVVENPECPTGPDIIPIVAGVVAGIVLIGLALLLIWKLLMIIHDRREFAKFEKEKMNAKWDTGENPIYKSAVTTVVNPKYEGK
row,Structure (SMILES),pIC50
1,"CC(C)c1cccc(Nc2ccc(Cl)c(C(=O)N[C@@H](CNC(=O)N[C@@H]3CCc4ccccc43)C(=O)O)c2Cl)c1 [SU15210-0078-01, (S)-2-(2,6-dichloro-3-(3-isopropylphenylamino)benzamido)-3-(3-((R)-2,3-dihydro-1H-inden-1-yl)ureido)propanoic Acid]",6.00 to 6.30
2,"Nc1ccc(Cl)c(C(=O)N[C@@H](CNC(=O)N[C@@H]2CCc3ccccc32)C(=O)O)c1Cl [SU15210-0084-01, (S)-2-(3-amino-2,6-dichlorobenzamido)-3-(3-((R)-2,3-dihydro-1H-inden-1-yl)ureido)propanoic Acid]",6.00 to 6.30
3,"O=C(NC[C@H](NC(=O)c1c(Cl)ccc(NCCc2ccccc2)c1Cl)C(=O)O)N[C@@H]1CCc2ccccc21 [SU15210-0097-01, (S)-2-(2,6-dichloro-3-(phenethylamino)benzamido)-3-(3-((R)-2,3-dihydro-1H-inden-1-yl)ureido)propanoic Acid]",5.30 to 6.00
4,"CC(C)CCNc1ccc(Cl)c(C(=O)N[C@@H](CNC(=O)N[C@@H]2CCc3ccccc32)C(=O)O)c1Cl [SU15210-0125-01, (S)-2-(2,6-dichloro-3-(isopentylamino)benzamido)-3-(3-((R)-2,3-dihydro-1H-inden-1-yl)ureido)propanoic Acid]",5.30 to 6.00
5,"O=C(NC[C@H](NC(=O)c1c(Cl)ccc(NC2CCc3ccccc3C2)c1Cl)C(=O)O)N[C@@H]1CCc2ccccc21 (stereo partly drawn) [SU15210-0126-01, (2S)-2-(2,6-dichloro-3-(1,2,3,4-tetrahydronaphthalen-2-ylamino)benzamido)-3-(3-((R)-2,3-dihydro-1H-inden-1-yl)ureido)propanoic Acid]",5.30 to 6.00
6,O=C(NC[C@H](NC(=O)c1c(Cl)cc(-c2ccccc2)cc1Cl)C(=O)O)N[C@@H]1CCc2ccccc21 [SU15210-0140-01],< 5.30
7,"Cc1ccc(CC(=O)Nc2ccc(Cl)c(C(=O)N[C@@H](CNC(=O)N[C@@H]3CCc4ccccc43)C(=O)O)c2Cl)cc1Cl [SU15210-0154-01, (S)-2-(2,6-dichloro-3-(2-(3-chloro-4-methylphenyl)acetamido)benzamido)-3-(3-((R)-2,3-dihydro-1H-inden-1-yl)ureido)propanoic Acid]",5.30 to 6.00
8,"O=C(Cc1ccc(F)c(Cl)c1)Nc1ccc(Cl)c(C(=O)N[C@@H](CNC(=O)N[C@@H]2CCc3ccccc32)C(=O)O)c1Cl [SU15210-0155-01, (S)-2-(2,6-dichloro-3-(2-(3-chloro-4-fluorophenyl)acetamido)benzamido)-3-(3-((R)-2,3-dihydro-1H-inden-1-yl)ureido)propanoic Acid]",6.00 to 6.30
9,"Cc1cccc(CC(=O)Nc2ccc(Cl)c(C(=O)N[C@@H](CNC(=O)N[C@@H]3CCc4ccccc43)C(=O)O)c2Cl)c1 [SU15210-0156-01, (S)-2-(2,6-dichloro-3-(2-m-tolylacetamido)benzamido)-3-(3-((R)-2,3-dihydro-1H-inden-1-yl)ureido)propanoic Acid]",6.00 to 6.30
10,"O=C(Cc1cccc(Cl)c1)Nc1ccc(Cl)c(C(=O)N[C@@H](CNC(=O)NCc2ccccc2O)C(=O)O)c1Cl [SU15210-0159-01, (S)-2-(2,6-dichloro-3-(2-(3-chlorophenyl)acetamido)benzamido)-3-(3-(2-hydroxybenzyl)ureido)propanoic Acid]",> 6.30
11,"O=C(NC[C@H](NC(=O)c1c(Cl)ccc(N2CC(c3ccc(Cl)cc3)C2)c1Cl)C(=O)O)N[C@@H]1CCc2ccccc21 [SU15210-0163-01, (S)-2-(2,6-dichloro-3-(3-(4-chlorophenyl)azetidin-1-yl)benzamido)-3-(3-((R)-2,3-dihydro-1H-inden-1-yl)ureido)propanoic Acid]",5.30 to 6.00
12,O=C(NC[C@H](NC(=O)c1c(Cl)cc2c(c1Cl)CCNC2)C(=O)O)N[C@@H]1CCc2ccccc21 [SU15210-0171-01],< 5.30
13,CC(=O)N1CCc2c(cc(Cl)c(C(=O)N[C@@H](CNC(=O)N[C@@H]3CCc4ccccc43)C(=O)O)c2Cl)C1 [SU15210-0174-01],5.30 to 6.00
14,"CC1(C)CCC(NC(=O)NC[C@H](NC(=O)c2c(Cl)cc(C(=O)NCc3cccc(O)c3)cc2Cl)C(=O)O)c2ccccc21 (stereo partly drawn) [SU15210-0187-01, (2S)-2-(2,6-dichloro-4-(3-hydroxybenzylcarbamoyl)benzamido)-3-(3-(4,4-dimethyl-1,2,3,4-tetrahydronaphthalen-1-yl)ureido)propanoic Acid]",> 6.30
15,"O=C(NC[C@H](NC(=O)c1c(Cl)cc(OCCc2ccccc2)cc1Cl)C(=O)O)N[C@@H]1CCc2ccccc21 [SU15210-0188-01, (S)-2-(2,6-dichloro-4-phenethoxybenzamido)-3-(3-((R)-2,3-dihydro-1H-inden-1-yl)ureido)propanoic Acid]",5.30 to 6.00
16,"O=C(NC[C@H](NC(=O)c1c(Cl)cc(COCc2ccccc2)cc1Cl)C(=O)O)N[C@@H]1CCc2ccccc21 [SU15210-0189-01, (S)-2-(4-(benzyloxymethyl)-2,6-dichlorobenzamido)-3-(3-((R)-2,3-dihydro-1H-inden-1-yl)ureido)propanoic Acid]",6.00 to 6.30

row,Structure (SMILES),pIC50
1,O=C(NC[C@H](NC(=O)c1c(Cl)cc(N2CC(c3ccccc3)C2)cc1Cl)C(=O)O)N[C@@H]1CCc2ccccc21 [SU15210-0190-01],< 5.30
2,"O=C(NC[C@H](NC(=O)c1c(Cl)cc(-n2cnc(-c3ccccc3)c2)cc1Cl)C(=O)O)N[C@@H]1CCc2ccccc21 [SU15210-0192-01, (S)-2-(2,6-dichloro-4-(4-phenyl-1H-imidazol-1-yl)benzamido)-3-(3-((R)-2,3-dihydro-1H-inden-1-yl)ureido)propanoic Acid]",5.30 to 6.00
3,"O=C(NC[C@H](NC(=O)c1c(Cl)cc2c(c1Cl)CCN(C(=O)c1ccc(Cl)cc1)C2)C(=O)O)N[C@@H]1CCc2ccccc21 [SU15210-0208-01, (S)-2-(5,7-dichloro-2-(4-chlorobenzoyl)-1,2,3,4-tetrahydroisoquinoline-6-carboxamido)-3-(3-((R)-2,3-dihydro-1H-inden-1-yl)ureido)propanoic Acid]",> 6.30
4,"O=C(NC[C@H](NC(=O)c1c(Cl)cc2c(c1Cl)CCN(C(=O)c1cccc(Cl)c1)C2)C(=O)O)N[C@@H]1CCc2ccccc21 [SU15210-0209-01, (S)-2-(5,7-dichloro-2-(3-chlorobenzoyl)-1,2,3,4-tetrahydroisoquinoline-6-carboxamido)-3-(3-((R)-2,3-dihydro-1H-inden-1-yl)ureido)propanoic Acid]",> 6.30
5,"O=C(NC[C@H](NC(=O)c1c(Cl)cc2c(c1Cl)CCN(Cc1ccc(F)cc1)C2)C(=O)O)N[C@@H]1CCc2ccccc21 [SU15210-0210-01, (S)-2-(5,7-dichloro-2-(4-fluorobenzyl)-1,2,3,4-tetrahydroisoquinoline-6-carboxamido)-3-(3-((R)-2,3-dihydro-1H-inden-1-yl)ureido)propanoic Acid]",5.30 to 6.00
6,"O=C(NC[C@H](NC(=O)c1c(Cl)cc2c(c1Cl)CCN(Cc1ccccc1)C2=O)C(=O)O)N[C@@H]1CCc2ccccc21 [SU15210-0211-01, (S)-2-(2-benzyl-5,7-dichloro-1-oxo-1,2,3,4-tetrahydroisoquinoline-6-carboxamido)-3-(3-((R)-2,3-dihydro-1H-inden-1-yl)ureido)propanoic Acid]",> 6.30
7,"O=C(NC[C@H](NC(=O)c1c(Cl)cc2c(c1Cl)CCN(S(=O)(=O)c1ccccc1)C2)C(=O)O)N[C@@H]1CCc2ccccc21 [SU15210-0214-01, (S)-2-(5,7-dichloro-2-(phenylsulfonyl)-1,2,3,4-tetrahydroisoquinoline-6-carboxamido)-3-(3-((R)-2,3-dihydro-1H-inden-1-yl)ureido)propanoic Acid]",5.30 to 6.00
8,"CN(Cc1ccccc1)C(=O)NC[C@H](NC(=O)c1c(Cl)cc(C(=O)NCc2cccc(Cl)c2)cc1Cl)C(=O)O [SU15210-0223-01, (S)-3-(3-benzyl-3-methylureido)-2-(2,6-dichloro-4-(3-chlorobenzylcarbamoyl)benzamido)propanoic Acid]",> 6.30
9,"C[C@H](NC(=O)c1cc(Cl)c(C(=O)N[C@@H](CNC(=O)N[C@@H]2CCc3ccccc32)C(=O)O)c(Cl)c1)c1ccccc1 [SU15210-0224-01, (S)-2-(2,6-dichloro-4-((S)-1-phenylethylcarbamoyl)benzamido)-3-(3-((R)-2,3-dihydro-1H-inden-1-yl)ureido)propanoic Acid]",5.30 to 6.00
10,"C[C@@H](NC(=O)c1cc(Cl)c(C(=O)N[C@@H](CNC(=O)N[C@@H]2CCc3ccccc32)C(=O)O)c(Cl)c1)c1ccccc1 [SU15210-0225-01, (S)-2-(2,6-dichloro-4-((R)-1-phenylethylcarbamoyl)benzamido)-3-(3-((R)-2,3-dihydro-1H-inden-1-yl)ureido)propanoic Acid]",> 6.30
11,"CN(Cc1cccc(Cl)c1)C(=O)c1cc(Cl)c(C(=O)N[C@@H](CNC(=O)N[C@@H]2CCc3ccccc32)C(=O)O)c(Cl)c1 [SU15210-0226-01, (S)-2-(2,6-dichloro-4-((3-chlorobenzyl)(methyl)carbamoyl)benzamido)-3-(3-((R)-2,3-dihydro-1H-inden-1-yl)ureido)propanoic Acid]",6.00 to 6.30
12,"O=C(NC[C@H](NC(=O)c1c(Cl)cc(C(=O)N2CCc3ccccc3C2)cc1Cl)C(=O)O)N[C@@H]1CCc2ccccc21 [SU15210-0227-01, (S)-2-(2,6-dichloro-4-(1,2,3,4-tetrahydroisoquinoline-2-carbonyl)benzamido)-3-(3-((R)-2,3-dihydro-1H-inden-1-yl)ureido)propanoic Acid]",6.00 to 6.30
13,"O=C(NC[C@H](NC(=O)c1c(Cl)cc(C(=O)N2Cc3ccccc3C2)cc1Cl)C(=O)O)N[C@@H]1CCc2ccccc21 [SU15210-0228-01, (S)-2-(2,6-dichloro-4-(isoindoline-2-carbonyl)benzamido)-3-(3-((R)-2,3-dihydro-1H-inden-1-yl)ureido)propanoic Acid]",5.30 to 6.00
14,O=C(NC[C@H](NC(=O)c1c(Cl)cc(C(=O)N2CC(c3ccccc3)C2)cc1Cl)C(=O)O)N[C@@H]1CCc2ccccc21 [SU15210-0234-01],> 6.30
15,"O=C(Cc1cccc(Cl)c1)Nc1cc(Cl)c(C(=O)N[C@@H](CNC(=O)N[C@@H]2CCc3ccccc32)C(=O)O)c(Cl)c1 [SU15210-0235-01, (S)-2-(2,6-dichloro-4-(2-(3-chlorophenyl)acetamido)benzamido)-3-(3-((R)-2,3-dihydro-1H-inden-1-yl)ureido)propanoic Acid]",> 6.30
